In US7862751B2, “Formulation of fine particles using liquefield or dense gases” (MAP Pharmaceuticals, Inc., priority 2002, dated 2011):

What was measured:
[1] = coadministration of cyclosporine; J Clin Oncol 2001; cited from earlier work
[2] = Particle size by SEM; assay type: physicochemical; details: processed with CO2 at 190 bar, 50° C. and 25° C.
[3] = cited from earlier work

| SMILES | bioavailability [1] | particle size [2] | solubility in water [3] |
| --- | --- | --- | --- |
| CC(=O)O[C@@]12CO[C@@H]1C[C@H](O)[C@@]1(C)C(=O)[C@H](O)C3=C(C)[C@@H](OC(=O)[C@H](O)[C@@H](NC(=O)OC(C)(C)C)c4ccccc4)C[C@@](O)([C@@H](OC(=O)c4ccccc4)[C@H]21)C3(C)C [docetaxel] | strongly enhanced |  |  |
| Cc1ccc(C)c(OCCCC(C)(C)C(=O)O)c1 [gemfibrozil, 5-(2,5-dimethylphenoxy)-2,2-dimethylpentanoic acid] |  | approximately 5 microns | very poorly soluble |
